Measurements reported in PubChem BioAssay (NCI).
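Cells were grown in 96-well plates and exposed to each compound for 48 hours at five concentrations; endpoints were interpolated linearly between bracketing concentrations, or set to the highest concentration if not reached. Here, GI50 denotes the concentration required for 50% inhibition of growth. TGI marks complete inhibition of growth.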

Assays:
Assay in all cases: NCI tumour cell line growth inhibition, 48 h
[1] = test system: OVCAR-3 ovarian
[2] = test system: KM12 colon
[3] = test system: OVCAR-4 ovarian
[4] = test system: DLD-1 colon
[5] = test system: IGROV1 ovarian
[6] = test system: NCI-H226 lung
[7] = test system: SF-539 CNS
[8] = test system: SK-MEL-2 melanoma
[9] = test system: EKVX NSCLC
[10] = test system: SW-620 colon
[11] = test system: CCRF-CEM leukemia
[12] = test system: HCT-15 colon
[13] = test system: UACC-62 melanoma
[14] = test system: NCI-H522 lung
[15] = test system: M14 melanoma
[16] = test system: SN12C renal
[17] = test system: HCC-2998 colon
[18] = test system: MALME-3M melanoma
[19] = test system: HL-60(TB) leukemia
[20] = test system: KM20L2 colon
[21] = test system: RPMI-8226 leukemia
[22] = test system: SNB-78 CNS
[23] = test system: OVCAR-5 ovarian
[24] = test system: U251 CNS
[25] = test system: UACC-257 melanoma
[26] = test system: RXF 393 renal
[27] = test system: SK-MEL-28 melanoma
[28] = test system: SF-295 CNS
[29] = test system: HOP-18 NSCLC
[30] = test system: ACHN renal
[31] = test system: SNB-19 CNS
[32] = test system: M19-MEL melanoma
[33] = test system: COLO 205 colon
[34] = test system: SK-OV-3 ovarian
[35] = test system: HCT-116 colon
[36] = test system: A498 renal
[37] = test system: SNB-75 CNS
[38] = test system: K-562 leukemia
[39] = test system: HT29 colon
[40] = test system: XF 498 CNS
[41] = test system: NCI-H460 lung
[42] = test system: UO-31 renal
[43] = test system: LOX IMVI melanoma
[44] = test system: SF-268 CNS
[45] = test system: HOP-62 NSCLC
[46] = test system: MOLT-4 leukemia
[47] = test system: A549 NSCLC
[48] = test system: NCI-H23 lung
[49] = test system: OVCAR-8 ovarian
[50] = test system: TK-10 renal
[51] = test system: 786-0 renal
[52] = test system: DMS 114 small cell lung
[53] = test system: LXFL 529 NSCLC
[54] = test system: SK-MEL-5 melanoma
[55] = test system: SR leukemia
[56] = test system: CAKI-1 renal
[57] = test system: DMS 273 small cell lung
[58] = test system: HOP-92 NSCLC

COc1ccc2cc3[n+](cc2c1O)CCc1cc2c(cc1-3)OCO2
TGI [1]: > 100 µM | TGI [2]: > 100 µM | TGI [3]: > 100 µM | TGI [4]: > 100 µM | TGI [5]: > 100 µM | TGI [6]: > 100 µM | TGI [7]: > 100 µM | TGI [8]: > 100 µM | TGI [9]: > 100 µM | TGI [10]: > 100 µM | TGI [11]: > 100 µM | TGI [12]: > 100 µM | TGI [13]: > 100 µM | TGI [14]: > 100 µM | TGI [15]: > 100 µM | TGI [16]: > 100 µM | TGI [17]: > 100 µM | TGI [18]: > 100 µM | TGI [19]: > 100 µM | TGI [20]: > 100 µM | TGI [21]: > 100 µM | TGI [22]: > 100 µM | TGI [23]: > 100 µM | TGI [24]: > 100 µM | TGI [25]: > 100 µM | TGI [26]: > 100 µM | TGI [27]: > 100 µM | TGI [28]: > 100 µM | TGI [29]: > 100 µM | TGI [30]: > 100 µM | TGI [31]: > 100 µM | TGI [32]: > 100 µM | TGI [33]: > 100 µM | TGI [34]: > 100 µM | TGI [35]: > 100 µM | TGI [36]: > 100 µM | TGI [37]: > 100 µM | TGI [38]: > 100 µM | TGI [39]: > 100 µM | TGI [40]: > 100 µM | TGI [41]: > 100 µM | TGI [42]: > 100 µM | TGI [43]: > 100 µM | TGI [44]: > 100 µM | TGI [45]: > 100 µM | TGI [46]: > 100 µM | TGI [47]: > 100 µM | TGI [48]: > 100 µM | TGI [49]: > 100 µM | TGI [50]: > 100 µM | TGI [51]: > 100 µM

NC(=O)C1(c2ccccc2)Nc2ccccc2S1 (stereo not given)
TGI [1]: > 100 µM | TGI [2]: > 100 µM | TGI [4]: > 100 µM | TGI [6]: > 100 µM | TGI [7]: > 100 µM | TGI [8]: > 100 µM | TGI [9]: > 100 µM | TGI [10]: > 100 µM | TGI [52]: > 100 µM | TGI [11]: > 100 µM | TGI [12]: > 100 µM | TGI [13]: > 100 µM | TGI [14]: > 100 µM | TGI [15]: > 100 µM | TGI [16]: > 100 µM | TGI [17]: > 100 µM | TGI [18]: > 100 µM | TGI [53]: > 100 µM | TGI [19]: > 100 µM | TGI [20]: > 100 µM | TGI [21]: > 100 µM | TGI [23]: > 100 µM | TGI [24]: > 100 µM | TGI [54]: > 100 µM | TGI [26]: > 100 µM | TGI [27]: > 100 µM | TGI [29]: > 100 µM | TGI [55]: > 100 µM | TGI [30]: > 100 µM | TGI [31]: > 100 µM | TGI [32]: > 100 µM | TGI [33]: > 100 µM | TGI [34]: > 100 µM | TGI [35]: > 100 µM | TGI [38]: > 100 µM | TGI [39]: > 100 µM | TGI [40]: > 100 µM | TGI [41]: > 100 µM | TGI [42]: > 100 µM | TGI [43]: > 100 µM | TGI [44]: > 100 µM | TGI [56]: > 100 µM | TGI [57]: > 100 µM | TGI [45]: > 100 µM | TGI [46]: > 100 µM | TGI [47]: > 100 µM | TGI [48]: > 100 µM | TGI [49]: > 100 µM | TGI [50]: > 100 µM

Cc1cc(O)c2c3c1C(=O)Oc1c(CO)c(O)c(C(=O)O)c(c1O3)C=NN=Cc1c3c(c(CO)c(O)c1C(=O)O)OC(=O)c1c(C)cc(O)c(c1O3)C=NN=C2
TGI [1]: 88.1 µM | TGI [2]: > 100 µM | TGI [3]: > 100 µM | TGI [4]: > 100 µM | TGI [5]: > 100 µM | TGI [6]: > 100 µM | TGI [7]: > 100 µM | TGI [9]: > 100 µM | TGI [10]: > 100 µM | TGI [52]: > 100 µM | TGI [11]: > 1 µM | TGI [12]: > 100 µM | TGI [13]: > 100 µM | TGI [15]: > 100 µM | TGI [16]: > 100 µM | TGI [17]: > 100 µM | TGI [18]: > 100 µM | TGI [53]: > 100 µM | TGI [19]: > 1 µM | TGI [20]: > 100 µM | TGI [21]: > 1 µM | TGI [22]: > 100 µM | TGI [23]: > 100 µM | TGI [24]: > 100 µM | TGI [25]: > 100 µM | TGI [54]: > 100 µM | TGI [26]: > 100 µM | TGI [58]: > 100 µM | TGI [27]: > 100 µM | TGI [28]: > 100 µM | TGI [29]: > 100 µM | TGI [55]: > 1 µM | TGI [30]: > 100 µM | TGI [31]: > 100 µM | TGI [32]: > 100 µM | TGI [33]: > 100 µM | TGI [34]: > 100 µM | TGI [35]: > 100 µM | TGI [36]: > 100 µM | TGI [37]: > 100 µM | TGI [38]: > 1 µM | TGI [39]: > 100 µM | TGI [40]: > 100 µM | TGI [41]: > 100 µM | TGI [42]: > 100 µM | TGI [43]: > 100 µM | TGI [44]: > 100 µM | TGI [56]: > 100 µM | TGI [45]: > 100 µM | TGI [46]: > 1 µM | TGI [47]: > 100 µM | TGI [48]: > 100 µM | TGI [49]: > 100 µM | TGI [50]: > 100 µM | TGI [51]: > 100 µM

CC(=O)[CH-]C(C)=O.CC(=O)[CH-]C(C)=O.[CH2-]CCCCCCC.[CH2-]CCCCCCC.[Sn+4]
GI50 [1]: 15.9 µM | TGI [1]: 33.8 µM | GI50 [2]: 16.7 µM | TGI [2]: 34.4 µM | GI50 [3]: 22.3 µM | TGI [3]: 78.6 µM | GI50 [4]: 18.8 µM | TGI [4]: 45.2 µM | GI50 [5]: 20.3 µM | TGI [5]: 49.2 µM | GI50 [6]: 26.2 µM | TGI [6]: 52.3 µM | GI50 [7]: 22.2 µM | TGI [7]: 58.6 µM | GI50 [8]: 14.8 µM | TGI [8]: 32 µM | GI50 [9]: 14.7 µM | TGI [9]: 35.4 µM | GI50 [10]: 16.4 µM | TGI [10]: 31.7 µM | GI50 [52]: 16.7 µM | TGI [52]: 31.2 µM | GI50 [11]: 27 µM | TGI [11]: 69 µM | GI50 [12]: 23.2 µM | TGI [12]: 56.2 µM | GI50 [13]: 15.6 µM | TGI [13]: 29.4 µM | GI50 [14]: 20.3 µM | TGI [14]: 46.2 µM | GI50 [15]: 18.5 µM | TGI [15]: 35.5 µM | GI50 [16]: 22.7 µM | TGI [16]: 59.1 µM | GI50 [17]: 17 µM | TGI [17]: 31.5 µM | GI50 [18]: 17.6 µM | TGI [18]: 39.5 µM | GI50 [53]: 16.2 µM | TGI [53]: 30.1 µM | GI50 [19]: 21.1 µM | TGI [19]: 81.6 µM | GI50 [20]: 25 µM | TGI [20]: 57.6 µM | GI50 [21]: 18.5 µM | TGI [21]: 40.4 µM | GI50 [23]: 15.5 µM | TGI [23]: 37.7 µM | GI50 [24]: 15 µM | TGI [24]: 28.3 µM | GI50 [25]: 17.8 µM | TGI [25]: 34.9 µM | GI50 [54]: 17.7 µM | TGI [54]: 32 µM | GI50 [26]: 14.6 µM | TGI [26]: 32.9 µM | GI50 [58]: 18.1 µM | TGI [58]: 40.7 µM | GI50 [27]: 14.7 µM | TGI [27]: 28.4 µM | GI50 [28]: 15.4 µM | TGI [28]: 30.6 µM | GI50 [29]: > 100 µM | TGI [29]: > 100 µM | GI50 [55]: 39.9 µM | TGI [55]: 62.4 µM | GI50 [30]: 28.3 µM | TGI [30]: 70.4 µM | GI50 [31]: 17.5 µM | TGI [31]: 35.8 µM | GI50 [33]: 14.7 µM | TGI [33]: 28.8 µM | GI50 [34]: 25.5 µM | TGI [34]: 67.1 µM | GI50 [35]: 14.8 µM | TGI [35]: 29.1 µM | GI50 [36]: 23 µM | TGI [36]: 46.7 µM | GI50 [37]: 14.7 µM | TGI [37]: 78.6 µM | GI50 [38]: 20.5 µM | TGI [38]: 93.5 µM | GI50 [39]: 23.5 µM | TGI [39]: 59.6 µM | GI50 [40]: 11.8 µM | TGI [40]: 24.1 µM | GI50 [41]: 17.3 µM | TGI [41]: 37.8 µM | GI50 [42]: 17.2 µM | TGI [42]: 34.8 µM | GI50 [43]: 13.8 µM | TGI [43]: 27 µM | GI50 [44]: 18.9 µM | TGI [44]: 57.9 µM | GI50 [56]: 36.7 µM | TGI [56]: > 100 µM | GI50 [45]: 22.4 µM | TGI [45]: 40.9 µM | GI50 [46]: 37.2 µM | TGI [46]: 73 µM | GI50 [47]: 45.6 µM | TGI [47]: > 100 µM | GI50 [48]: 18.7 µM | TGI [48]: 33.6 µM | GI50 [49]: 16.8 µM | TGI [49]: 32.1 µM | GI50 [50]: 23.7 µM | TGI [50]: 45.2 µM | GI50 [51]: 15.8 µM | TGI [51]: 30.1 µM
